Measured values reported in publication PMC10398685 (ACS Omega, 2023).
Entries after “also recorded” stand apart in the source; their conditions may differ.

Legend:
[1] = Microsomal stability, mouse; type: in vitro ADME; conditions: triplicates; for Microsomal stability Rem. at 45 min / Microsomal stability T1/2: 0.5 mg/ml mouse microsomes, 5uM; for microsomal CLint at 5 µM / half-life at 5 µM: pH 7.4, 0.5 mg/ml mouse microsomes; for half-life at 5 µM: read-out: Microsomal stability T1/2
[2] = in vitro; conditions: African green monkey
[3] = tested on: VERO-E6 cells; test: Steady-state intracellular uptake in VERO-E6 cells; type: in vitro ADME; conditions: VERO-E6, 60 min incubation, 50 μM at t = 0
Source text: (§1) While an enzymatic MTase assay represents a valuable fast screening platform providing the information that can be directly used for SAR analyses, it is not fully predictive for the compounds’ activity in whole cells. In order to verify the ability of the compounds to reach the intracellular compartment, we measured the steady-state accumulation of representative compounds in intact CCRF-CEM, VERO-E6, and Calu-3 cells (Tables 3 and S2). […] Compound 12q was almost completely cleared from the medium after 60 min incubation with the cells rendering it among the most permeable compounds of the series based on Kp values. It should be noted that the apparent intracellular concentration of the compounds may be biased by their potential metabolism. Therefore, we decided to subject the selected derivatives to in vitro stability studies. […]
(§2) 3.3. Intracellular Uptake
(§3) Steady-state cellular uptake was measured in CCRF-CEM cells (ATCC, CRL-119), VERO-E6 cells (ATCC, CRL-1586) and Calu-3 cells (HTB-55), respectively. […]
(§4) The medium was stored at −20 °C […]
(§5) for later analysis of the extracellular concentration of the compounds. The cells were washed two times with 1 mL PBS (900 x g, 5 min, +4 °C), and also stored at −20 °C for subsequent analysis of the intracellular concentration of the compounds. At the day of the analysis, both media and the pelleted cells were quickly thawed. The cell pellets were extracted with 200 μL of ice-cold methanol by vigorous shaking, further diluted 1:1 with water and centrifuged at 20 000 x g for 10 min. As for the media samples, 10 μL aliquots were extracted with 990 μL of 50% methanol. The samples were then transferred to ECHO® -compatible 384-well plates and the amount of analytes were quantified by the ECHO -MS® System (Sciex) where acoustic droplet ejection module is coupled with Sciex 6500® triple quadrupole mass spectrometer operating with an electrospray ionization source. Spectrometer was run in the multiple reaction monitoring (MRM) mode. When necessary, the processed samples were further diluted in 50% methanol to fit in the calibration range. Calibration curves of the compounds in 50% methanol were measured alongside the samples within the same run. The ra tio between the total compound concentration in the cells and compound concentration in the medium (K p) at t=60 min was calculated according to: Kp = (Acell / Vcell) / Cmedium, where Acell is the amount of compound in the cell lysate, Vcell is the CCRF-CEM cell volume (3.38 μL/10^7 cells)16 and Cmedium is the compound concentration in the medium sample after correcting for sample dilution. Experiments were performed in duplicates.
(§6) For adherent cells (Vero E6 and Calu-3), the workflow was modified as follows: Cells were seeded on 6-well plates at a concentration of […] and 8.2 x 10^5 cells/well for Vero E6 and Calu-3, respectively, in 3 mL of serum-free culture media. The cells were left to attach overnight, the medium was then aspirated and replenished with 2 mL of fresh media containing the compounds (50 µM final conc). After 60 min at 37 °C the media was aspirated and the cells were washed twice with 1 mL of PBS. Then, 1 mL of fresh PBS was added and the cells were subjected to three freeze-thaw cycles and further diluted with 1:1 with MeOH. The cell lysates and the media were further processed as described above. Intracellular volume of Vero E6 and Calu-3 cells (8.6 and 14 μL/107 cells, respectively) was calculated from their diameter determined by cell counter (Luna FL) while in suspension (following the trypsinization) assuming the homogenous spheres.

[4] = Steady-state intracellular uptake in VERO-E6 cells; type: in vitro ADME; conditions: African green monkey, VERO-E6 cells; VERO-E6, 60 min incubation, 50 μM at t = 0; read-out: Kp (intracellular accumulation ratio IC/EC)
Source text: as §1, §2, §3, §4, §5, §6

[5] = Plasma stability, mouse; type: in vitro ADME; conditions: 5uM, triplicates
[6] = Plasma stability, human; type: in vitro ADME; conditions: 5uM, triplicates, 37 °C
Protocol: The microsomal half-lives (t1/2) were calculated using the equation t1/2=0.693/k, where k is the slope found in the linear fit of the natural logarithm of the fraction remaining of the parent compound vs. incubation time. […]
To determine plasma stability of the compounds, 5 μM of these were incubated with human pooled plasma from 50 donors (Biowest) for 120 min and 240 min at 37 °C. The reactions were terminated by adding four volumes of ice -cold methanol, the samples were then mixed vigorously and left at -20 °C for 1 h. After that, the samples were centrifuged, and the supernatant was analyzed by means of ECHO -MS® System (Sciex). Zero time points were prepared by adding ice-cold methanol to the compound prior the addition of the plasma. […]

[7] = tested on: SARS-CoV-2; test: microbe, parasite or virus in culture; type: cell-based; conditions: Severe acute respiratory syndrome coronavirus 2, 72 h; Calu-3 cells, MOI~0.03, 3 days incubation, CPE by XTT; read-out: EC50 (anti-SARS-CoV-2 activity)
[8] = target: SARS-CoV-2 nsp14 7-N MTase (Severe acute respiratory syndrome coronavirus 2, UniProt P0DTD1); test: biochemical; conditions: Echo MS assay, 20 nM nsp14, 4 μM SAM, 4 μM GpppA, duplicates
[9] = in vitro; conditions: human

Row | Structure (SMILES) | Microsomal stability Rem. at 45 min [1] [%] | microsomal CLint at 5 µM [1] [µL/min/mg] | half-life at 5 µM [1] [min] | CC50 at 3 days [2] [µM] | EC (extracellular concentration in the media at t = 60 min) ± sd [3] [µM] | IC (intracellular concentration in the cells at t = 60 min) ± sd [3] | Kp at 1 h, 50 µM [4] | Plasma stability Rem. at 120 min [5] [%] | Plasma stability T1/2 [5] | Plasma stability Rem. at 120 min [6] [%] | Plasma stability T1/2 [6] | EC50 [7] [µM] | IC50 [8] [µM] | CC50 at 3 days [9] [µM] | Microsomal stability T1/2 [1]
1 | COc1ccc(S(=O)(=O)N(C)C[C@H]2O[C@@H](n3cc(C#Cc4cccnc4)c4c(N)ncnc43)[C@H](O)[C@@H]2O)cc1C#N [Compound 12s] | 50.2 ± 3.2 | 30.5 ± 4.7 | 50.8 ± 5.1 | > 100 | 2.6 ± 2.3 | 13,578 ± 3626 μM | 5210 | 102.7 ± 3.4 | Stable | 86.9 ± 0.9 | Stable | > 100 | 0.021 ± 0.003 | > 100 | –
2 | CCN(C[C@H]1O[C@@H](n2cc(C#Cc3ccc(C(N)=O)cc3)c3c(N)ncnc32)[C@H](O)[C@@H]1O)S(=O)(=O)c1ccc(OC)c(C#N)c1 [Compound 12o] | 65.9 ± 3.2 | 19.2 ± 1.7 | 74.9 ± 7.5 | > 100 | 20.9 ± 0.8 | – | 247 | 115.4 ± 3.7 | Stable | 95.6 ± 5.1 | Stable | > 100 | 0.049 ± 0.0062 | > 100 | –
3 | COc1ccc(S(=O)(=O)N(C)C[C@H]2O[C@@H](n3cc(C#Cc4cnc5ccccc5c4)c4c(N)ncnc43)[C@H](O)[C@@H]2O)cc1C#N [Compound 12q] | 101.0 ± 3.4 | – | – | > 100 | 0.1 ± 0.1 | 18,533 ± 7709 μM | – | 113.2 ± 3.7 | Stable | 97.2 ± 4.1 | Stable | > 100 | 0.019 ± 0.0025 | > 100 | Stable; also recorded: excellent stability
4 | CCN(C[C@H]1O[C@@H](n2cc(C#Cc3nc4ccccc4[nH]3)c3c(N)ncnc32)[C@H](O)[C@@H]1O)S(=O)(=O)c1ccc(OC)c(C#N)c1 [Compound 12a] | 48.7 ± 3.2 | 32.6 ± 2.1 | 44.1 ± 2.7 | > 100 | 42 ± 3.2 | – | 822 | 119.2 ± 6.0 | Stable | 84.3 ± 2.6 | Stable | > 100 | 0.037 ± 0.0065 | > 100 | –
5 | COc1ccc(S(=O)(=O)N(C)C[C@H]2O[C@@H](n3cc(C#Cc4ccc(C(N)=O)cc4)c4c(N)ncnc43)[C@H](O)[C@@H]2O)cc1C#N [Compound 12r] | 80.9 ± 12.0 | – | – | > 100 | 1.1 ± 0.5 | 19,777 ± 7485 μM | – | 113.5 ± 6.0 | Stable | 89.7 ± 0.6 | Stable | > 100 | 0.023 ± 0.0037 | > 100 | Stable; also recorded: excellent stability
6 | CCN(C[C@H]1O[C@@H](n2cc(C#Cc3cccnc3)c3c(N)ncnc32)[C@H](O)[C@@H]1O)S(=O)(=O)c1ccc(OC)c(C#N)c1 [Compound 12l] | 37.4 ± 0.5 | 40.9 ± 0.8 | 33.7 ± 0.7 | > 100 | 17.1 ± 2.9 | – | 225 | 109.9 ± 1.0 | Stable | 89.8 ± 2.0 | Stable | > 100 | 0.038 ± 0.0059 | > 100 | –
7 | CCN(C[C@H]1O[C@@H](n2cc(C#Cc3cnc4ccccc4c3)c3c(N)ncnc32)[C@H](O)[C@@H]1O)S(=O)(=O)c1ccc(OC)c(C#N)c1 [Compound 12e] | 79.3 ± 3.8 | – | – | > 100 | 16.5 ± 3.6 | – | 608 | 120.8 ± 10.5 | Stable | 76.3 ± 13.7 | Stable | > 100 | 0.028 ± 0.005 | > 100 | Stable
8 | CCN(C[C@H]1O[C@@H](n2cc(C#Cc3ccc(N)nc3)c3c(N)ncnc32)[C@H](O)[C@@H]1O)S(=O)(=O)c1ccc(OC)c(C#N)c1 [Compound 12h] | 43.0 ± 0.8 | 37.8 ± 1.8 | 37.3 ± 1.8 | > 100 | 19.5 ± 2.0 | – | 885 | 108.2 ± 4.2 | Stable | 102.3 ± 4.8 | Stable | > 100 | 0.046 ± 0.0058 | > 100 | –
